The values that follow are results of earlier work, collected in US20240158375A1, “COMPOUNDS AND METHODS FOR THE TREATMENT OF OCULAR DISORDERS” (Azura Ophthalmics Ltd., priority 2020, published 2024).

Data set [1] deals with murine DS model. To be noted: Invest. Ophthalmol. Vis. Sci. (2015) 56(10), 5888-5895.
Data set [2] concerns the target integrin α4 (Homo sapiens, UniProt P05556+P13612). To be noted: Ravensberg et al, Allergy (2006) 61, 1097-1103.

integrin α4, sequence (P13612 34-1032, species assumed): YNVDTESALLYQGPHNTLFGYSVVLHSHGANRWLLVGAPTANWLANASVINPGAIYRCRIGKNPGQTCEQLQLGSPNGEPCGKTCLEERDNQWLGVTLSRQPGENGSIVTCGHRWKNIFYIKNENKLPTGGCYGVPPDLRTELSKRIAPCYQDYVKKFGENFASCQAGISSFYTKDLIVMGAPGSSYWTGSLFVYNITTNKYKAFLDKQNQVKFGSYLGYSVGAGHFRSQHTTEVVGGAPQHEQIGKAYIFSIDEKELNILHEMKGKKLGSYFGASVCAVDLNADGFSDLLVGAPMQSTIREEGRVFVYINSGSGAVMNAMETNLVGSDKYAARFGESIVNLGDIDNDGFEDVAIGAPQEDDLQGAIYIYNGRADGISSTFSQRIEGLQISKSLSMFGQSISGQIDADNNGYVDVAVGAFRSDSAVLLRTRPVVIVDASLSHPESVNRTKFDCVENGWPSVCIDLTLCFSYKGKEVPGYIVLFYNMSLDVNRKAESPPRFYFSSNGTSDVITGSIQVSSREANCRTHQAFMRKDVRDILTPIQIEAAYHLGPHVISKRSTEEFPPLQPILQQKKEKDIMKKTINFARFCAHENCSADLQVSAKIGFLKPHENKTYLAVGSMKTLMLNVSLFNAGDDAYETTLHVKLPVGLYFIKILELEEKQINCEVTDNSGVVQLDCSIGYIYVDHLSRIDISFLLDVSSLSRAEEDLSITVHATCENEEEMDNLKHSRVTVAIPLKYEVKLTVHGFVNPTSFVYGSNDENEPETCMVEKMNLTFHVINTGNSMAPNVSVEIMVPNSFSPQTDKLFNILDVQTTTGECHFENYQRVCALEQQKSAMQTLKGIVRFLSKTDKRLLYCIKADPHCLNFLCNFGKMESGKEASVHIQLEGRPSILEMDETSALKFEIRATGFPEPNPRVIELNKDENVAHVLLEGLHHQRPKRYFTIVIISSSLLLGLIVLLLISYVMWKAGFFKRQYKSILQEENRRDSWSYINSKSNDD
integrin α4, sequence (P05556 21-798, species assumed): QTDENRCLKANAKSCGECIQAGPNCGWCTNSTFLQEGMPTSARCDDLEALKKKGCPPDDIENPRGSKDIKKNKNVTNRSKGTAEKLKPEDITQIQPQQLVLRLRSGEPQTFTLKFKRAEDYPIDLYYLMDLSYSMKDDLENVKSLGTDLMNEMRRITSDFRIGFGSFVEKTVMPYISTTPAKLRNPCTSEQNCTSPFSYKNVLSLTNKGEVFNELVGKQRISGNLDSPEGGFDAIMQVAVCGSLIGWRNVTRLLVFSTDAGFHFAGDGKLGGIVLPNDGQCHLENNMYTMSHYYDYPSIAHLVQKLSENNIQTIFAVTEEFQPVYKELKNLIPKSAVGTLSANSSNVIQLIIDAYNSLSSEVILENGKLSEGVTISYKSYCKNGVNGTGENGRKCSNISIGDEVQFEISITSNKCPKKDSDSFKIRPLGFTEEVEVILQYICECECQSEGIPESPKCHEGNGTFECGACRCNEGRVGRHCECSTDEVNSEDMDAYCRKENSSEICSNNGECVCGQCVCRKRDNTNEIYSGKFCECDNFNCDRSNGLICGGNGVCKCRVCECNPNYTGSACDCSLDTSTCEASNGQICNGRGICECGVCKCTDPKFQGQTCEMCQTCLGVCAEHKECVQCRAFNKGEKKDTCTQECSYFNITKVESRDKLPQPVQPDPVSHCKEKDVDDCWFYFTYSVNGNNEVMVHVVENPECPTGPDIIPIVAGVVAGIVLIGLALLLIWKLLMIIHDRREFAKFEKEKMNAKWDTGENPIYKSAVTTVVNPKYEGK

Regarding `Cc1ccccc1OCC(=O)N[C@@H](CC(C)C)C(=O)N[C@@H](Cc1ccc(OC(=O)N2CCC(C(N)=O)CC2)cc1)C(=O)O` [(S)-3-(4-((4-carbamoylpiperidine-1-carbonyl)oxy)phenyl)-2-((S)-4-methyl-2-(2-(o-tolyloxy)acetamido)pentanamido)propanoic acid], in data set [1], the “objective signs of dry eye” value is “improvements in objective signs of dry eye”. In addition, the “integrin α4 antagonist activity” value in data set [2] is “potent integrin a4 antagonist”.
